The source of these data is patent publication US20230131501A1, “THERAPEUTIC USES OF INHIBITORS OF THE RNA-BINDING PROTEIN HuR” (University of Kansas, priority 2020, published 2023).

The test system of one data set is HCT116 β/w. In words: Cytotoxicity assay (WST-8). Type of data set: cell-based. The settings on record: Homo sapiens, HCT-116, 96 h incubation. As to the method:
(§1) Cells were seeded in 96-well culture plates (5,000 cells/well) and treated with titrated compounds in triplicate. After 96 h incubation, cell growth medium was removed and proliferation reagent WST-8 (Sigma) was added to each well and incubated at 37° C. for 1-3 h. Absorbance was then measured with a plate reader at 450 nm with correction at 650 nm. The results were expressed as the percentage of absorbance of treated wells versus that of vehicle control.
On the technique in general: Formazan colour is commonly taken as a measure of viable cells.

The subject of the next data set is MIAPaCa-2. In words: Cytotoxicity assay (WST-8). The settings on record: Homo sapiens, MIA PaCa-2, 96 h incubation. It counts as cell-based. How it is done: as §1
Another data set concerns MDA-MB-231. In words: Cytotoxicity assay (WST-8). Type of data set: cell-based. The conditions noted are these: Homo sapiens, MDA-MB-231, 96 h, read-out: Cytotoxicity (IC50, μM) MDA-MB-231. How it is done:
as §1, with “The cytotoxicity of the tested compounds in several cancer cell lines (HCT116 β/w, MIAPaCa-2, and MDA-MB-231) was determined by a cytotoxicity assay, where the results are provided in Table 1. Cells” for “Cells”, “control. IC50, the drug concentration causing 50% growth inhibition, was calculated via sigmoid curve fitting using GraphPad Prism 5.0. […]” for “control.”

The subject of another data set is normal cell line WI-38. The data set can be described thus: Cytotoxicity assay, normal cell line. Type of data set: cell-based. How it is done: as §1, with “The cytotoxicity of the tested compounds in several cancer cell lines (HCT116 β/w, MIAPaCa-2, and MDA-MB-231) was determined by a cytotoxicity assay, where the results are provided in Table 1. Cells” for “Cells”, “control. IC50, the drug concentration causing 50% growth inhibition, was calculated via sigmoid curve fitting using GraphPad Prism 5.0.” for “control.”
(§2) The assay was then utilized to assess cytotoxicity of KH-3 against an expanded panel of cell lines (including normal cell line WI-38), where FIGS. 4A-4C provide the results.

In data set [1] the test system is panel of cancer cell lines. In words: Cytotoxicity assay, expanded panel of cell lines. Type of data set: cell-based. How it is done: as §1, with “The cytotoxicity of the tested compounds in several cancer cell lines (HCT116 β/w, MIAPaCa-2, and MDA-MB-231) was determined by a cytotoxicity assay, where the results are provided in Table 1. Cells” for “Cells”, “control. IC50, the drug concentration causing 50% growth inhibition, was calculated via sigmoid curve fitting using GraphPad Prism 5.0.” for “control.”
as §2

The target of data set [2] is T1, HuR protein bound to Msi1-Bi (Homo sapiens, UniProt Q15717).
T1 construct: endogenous in cells
In words: Pull-down assay #1, RNA immunoprecipitation with biotinylated Msi1 ARE oligo. It counts as cell-based. The settings on record: cytoplasmic lysates of treated cells with HuR overexpression. As to the method:
Cells with HuR overexpression were treated with compounds, then the cell cytoplasmic lysates were collected using NE-PER Nuclear and Cytoplasmic Extraction Kit (Thermo Scientific), and subsequently to the cell cytoplasmic lysates were added the biotinylated target ARE oligo from Msi1 mRNA (Msi1-Bi). Following this, streptavidin beads were added to pull down HuR protein bound to Msi1-Bi. Compounds of the present technology blocked the HuR pull-down by the biotinylated ARE oligo, illustrating inhibition of the Hur-mRNA interaction. Unlabeled target AREs were used as positive control. FIG. 6A provides results with KH-3, illustrating KH-3 blocked Msi1-Bi RNA mediated pull-down of HuR protein up to 24%.

Data set [3] relates to 2LMP subclone of MDA-MB-231, lung metastasis. In words: Experimental metastasis model (2LMP, lung metastasis). Type of data set: in vivo, mice. As to the method:
For the experimental metastasis model, Dr. Marc Lippman kindly gifted a 2LMP subclone that was generated from MDA-MB-231 and that formed lung metastasis in mice. 0.5×10^6 2LMP cells stably expressing luciferase in 0.3 mL DMEM were intravenously injected into tail veins of mice. Immediately following injection, mice were imaged by bioluminescence to assure wide distribution and quality of the initial injection. The mice were then randomized into two groups and treated with 50 mg/kg KH-3 or vehicle control via intraperitoneal injection five times per week for five weeks. Bioluminescence imaging was taken weekly to monitor the metastasis burden at lung. […] Imaging was then taken twice a week after first detectable signaling at lung. All animal experiments were carried out according to the protocol approved by the Institutional Animal Use and Care Committee at the University of Kansas.

Another data set concerns BxPC-3 cells. The data set can be described thus: MTT cell viability. Type of data set: cell-based. The conditions noted are these: Homo sapiens; BxPC-3, 48 hours. How it is done:
(§3) Pancreatic cancer cell lines were obtained from the American Type Culture Collection (Manassas, Va.). hTERT-HPNE cells (immortalized human pancreatic ductal epithelial cells) were donated by Dr. Anant at the University of Kansas Medical Center. MTT assay was used for cell viability detection, with starting cell number in 96-well plate of 3000/well (for 72 h treatment) or 5000/well (for 48 h treatment).
(§4) Pancreatic cancer cell lines with different endogenous HuR expression levels were treated with serial concentrations of KH-3 for 48 hours. KH-3 induced cytotoxicity in pancreatic cancer cells, with the sensitivity correlated to endogenous HuR protein levels (FIG. 30). MIA PaCa2 cells have the highest HuR protein abundance among the tested cell lines and were the most sensitive to HuR treatment (IC50=5 μM). […] BxPC-3 cells, another human pancreatic cancer cell line, have HuR expression level in the middle, and the IC50 of KH-3 was in the middle (10 μM). A non-cancerous human pancreatic ductal epithelial cell line (hTERT-HPNE) was tested under the same conditions. hTERT-HPEN cells have the lowest abundance of HuR protein compared to the cancer cells, and the cytotoxicity of KH-3 to these cells were minimal (IC50>>40 μM). There is an inverse correlation in the tested cell lines between the HuR expression levels and the sensitivity to KH-3 treatment (FIG. 30) (R=−0.71 by Pearson Tests).

Another data set concerns MIA PaCa2 cells. The data set can be described thus: MTT cell viability. Type of data set: cell-based. The conditions noted are these: Homo sapiens, MIA PaCa-2; MIA PaCa2, 48 hours. How it is done:
as §3, §4

The test system of another data set is PANC-1 cells. The data set can be described thus: MTT cell viability. It counts as cell-based. The settings on record: Homo sapiens; PANC-1, 48 hours. How it is done:
as §3, §4

Where [4] appears, read: 50 mg/kg i.p. five times per week for five weeks.

The structures appear in SMILES notation. “Also recorded” adds a separate entry of the source.

As a reminder, the IC50 is the concentration at which inhibition is half-maximal.

T1 sequence (Q15717 2-326 limits assumed): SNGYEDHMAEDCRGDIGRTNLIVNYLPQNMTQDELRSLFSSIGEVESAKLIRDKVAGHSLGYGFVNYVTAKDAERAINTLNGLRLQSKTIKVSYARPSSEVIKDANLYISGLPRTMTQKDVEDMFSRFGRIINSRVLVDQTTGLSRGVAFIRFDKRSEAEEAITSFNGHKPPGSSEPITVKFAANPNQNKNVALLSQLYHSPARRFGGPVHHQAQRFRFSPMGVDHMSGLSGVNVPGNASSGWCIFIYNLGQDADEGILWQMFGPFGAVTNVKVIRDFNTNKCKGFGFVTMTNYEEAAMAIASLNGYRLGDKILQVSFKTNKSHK

Consider `CC(C)(C)c1ccc(S(=O)(=O)Nc2ccc3sc(/C=C/C(=O)NO)cc3c2)cc1` [KH-3], for which the IC50 in the data set on HCT116 β/w was 3.6 µM; with MIAPaCa-2, 4.5 µM; in the data set with MDA-MB-231 it was 4.15 µM; in the data set on BxPC-3 cells, 10 µM; in the data set with MIA PaCa2 cells it was 5 µM; with PANC-1 cells it was 25 µM. The “concentration until which not cytotoxic” value in the data set with normal cell line WI-38 was “about 100 μM”. Further, the “cytotoxicity across a panel of cancer cell lines” value in data set [1] is “potent cytotoxicity”. For the same molecule, the “blocking of Msi1-Bi RNA mediated pull-down of HuR protein” value in [2] is “up to 24%”. Also, the median survival time in data set [3] (setting [4]) came out at 81 days. Besides, the “median time to initiation of pulmonary metastases” value in data set [3] (setting [4]) is listed as 71 days. The side effects entry in data set [3] (setting [4]) is listed as “minor diarrhea in some mice; also recorded: Some mice had swollen abdomens starting the fourth week of treatment”. For the same molecule, in data set [3] (50 mg/kg i.p. five times per week for five weeks, 7/9), the “metastasis rate (mice with pulmonary metastases at the end of experiment)” value is recorded as 77.7%. Also, in data set [3] (first 43 days of the experiment), the weight gain result is reported as “gained weight similar to those in control group”.
